Data reported in publication PMC10399118, “Detection of endogenous NPY release determined by novel GRAB sensor in cultured cortical neurons” (Frontiers in Cellular Neuroscience, 2023).
Read-outs that look alike come from different tables or passages of the source.

What was measured:
GRAB NPY1.0 sensor [1] = assay: GRAB NPY1.0 sensor live-cell fluorescence imaging in cultured cortical neurons; format: cell-based, mouse
Method: Cortex was isolated from postnatal day 1–2 (P1-P2) mice (C57Bl/6, Charles River, Germany), and the meninges were removed in ice-cold dissection media containing 10% 10xHBSS (Gibco, Scotland, #14065056), 1% P/S, 1% sodium pyruvate (Gibco, Scotland, #11360070), 1% 1M HEPES (Gibco, Scotland), and 1.2% 45% glucose (Sigma-Aldrich, Germany). The cortices were cut into smaller pieces and incubated for 20–30 min at 37°C in papain solution containing 20 units/mL papain (Worthington Biochemical, #LS003126), 1mM L-cysteine (Sigma-Aldrich, Germany, #C7352), 1.9 mM CaCl2 (Sigma-Aldrich, Germany), 0.5 mM Kynurenic acid (Sigma-Aldrich, Germany, #K3375), pH adjusted to 7.4 with HCl and oxygenated with 95% O2 and 5% CO2. After incubation, the tissue was washed 3 times with Neurobasal A media and carefully triturated 3–5 times with a glass Pasteur pipette with a fire-polished tip. The dissociated cortical neurons were plated at a density of 100,000 or 150,000 cells/well onto the glia monolayered 18- or 25-mm coverslips, respectively, and grown in Neurobasal A media containing 1% Glutamax, 2% B-27, and 0.1% P/S. The day after seeding the neurons, half of the media was changed to remove any cell debris. Every 3–4 days, 1/4 of the media in the wells was removed and replaced with double of the removed volume of fresh neuronal media. The use of experimental animals was conducted in concordance with the Danish Research Ethical Committee for Experimental Animals (ethical permit #2017-15-0202-00092; PI: Andreas Toft Sørensen).
The following AAV vectors were used for experiments: GRAB NPY1.0 sensor (AAV2/9-hSyn-GRAB_NPY1.0; 6E+12−4.7E+13 vg/ml, 1 μL/well); sRGECO calcium sensor (AAV2/8-Ef1a-sRGECO-WPRE; Addgene plasmid #137125; RRID:Addgene_137125; 2.2E+13 vg/ml, 0.2 μL/well) ([Fenno et al., 2020]); NPY1-36 vector (AAV2/8-hSyn-PreproNPY-WPREpA; full-length peptide incl. CPON; produced in-house; 7.8E+12 vg/ml, 0.5 μL/well) ([Soud et al., 2019]). Primary cultures were transduced after 2–3 DIV and given […] to assure robust expression before being used for live-cell imaging.
Neurons were continuously perfused with artificial cerebrospinal fluid (aCSF) [120 mM NaCl, 5 mM KCl, 2 mM CaCl2, 2 mM MgCl2, 25 mM HEPES, and 30 mM D-glucose] at pH 7.4 and 32°C for all live imaging experiments. An RC-21BDW microscope flow chamber (Warner Instruments, Hamden, CT, USA) was used to hold the coverslips and to apply a flow of different aCSF and drug buffers during imaging at 20× with a Nikon Eclipse Ti microscope connected to two EM-CCD cameras (iXon3 897, Andor). A NIS-Elements software (Nikon, Tokyo, Japan) was used for recordings. GRAB NPY1.0 and sRGECO biosensors were excited with 488 nm and 561 nm laser lines (LED sapphire laser; Coherent Inc., Santa Clara, CA, USA), respectively. For the 488 nm LED laser excitation, a 491 nm mirror, and a 475/35 nm band-pass filter were used, while a 525/50 nm band-pass filter (AHF Analysentechnik, Tübingen-Pfrondorf, Germany) was used to detect emitted light. For the 561 nm LED laser excitation, a 561 nm mirror, and a 560/40 nm band-pass filter were used, while a 630/75 nm band-pass filter (AHF Analysentechnik, Tübingen-Pfrondorf, Germany) was used to detect emitted light. The collected images were recorded either at a frame rate of 1 frame/second when recording GRAB NPY1.0 alone or 4 frames/second when the sRGECO signal was also recorded. All recordings were performed using epifluorescence microscopy.
(§1) Epifluorescence imaging was conducted under constant slow perfusion of aCSF buffers at a flow rate of approximately 1 ml/min. To induce neuronal activity, bicuculline (Bic; 50 μM; 14340, Sigma-Aldrich, Germany; dissolved in DMSO) and 4-aminopyridine (4-AP; 250 μM; 275875, Sigma-Aldrich, Germany; dissolved in Milli-Q water) was added together with aCSF, which was carefully measured after adding the compounds to confirm a pH of 7.4. […]

[2] = tested on: cultured cortical neurons; assay: sRGECO calcium sensor imaging of neuronal activity in cultured cortical neurons; format: cell-based, mouse
Method: Cortex was isolated from postnatal day 1–2 (P1-P2) mice (C57Bl/6, Charles River, Germany), and the meninges were removed in ice-cold dissection media containing 10% 10xHBSS (Gibco, Scotland, #14065056), 1% P/S, 1% sodium pyruvate (Gibco, Scotland, #11360070), 1% 1M HEPES (Gibco, Scotland), and 1.2% 45% glucose (Sigma-Aldrich, Germany). […]
Neurons were continuously perfused with artificial cerebrospinal fluid (aCSF) [120 mM NaCl, 5 mM KCl, 2 mM CaCl2, 2 mM MgCl2, 25 mM HEPES, and 30 mM D-glucose] at pH 7.4 and 32°C for all live imaging experiments. […] The collected images were recorded either at a frame rate of 1 frame/second when recording GRAB NPY1.0 alone or 4 frames/second when the sRGECO signal was also recorded. […]
as §1

GRAB NPY1.0 sensor [3] = details: ref Wang et al., 2022, read-out: EC50 of GRAB NPY1.0 sensor response, cited from earlier work
From the text: Here, we report on the usage of the GRAB NPY1.0 sensor in mouse-cultured cortical neurons and address the question: can the sensor detect the release of endogenous NPY? This sensor, recently developed in the Yulong Li laboratory, Peking University of China, is one of six neuropeptide-based GRAB sensors engineered for detecting either SST, CCK, CRF, NTS, VIP or NPY ([Wang et al., 2022]). While it was shown that the SST, CCK, and CRF sensors can detect endogenously released neuropeptides ([Wang et al., 2022]), similar information is lacking on the NPY1.0 sensor. In our setup, we tested the NPY1. ...

[4] = transgene NPY cultures, BIBO3304 applied during Bic + 4-AP

Compound | neurons expressing the GRAB NPY1.0 sensor that remained unresponsive (GRAB NPY1.0 sensor [1]; 1 μM exogenous NPY, naive mouse cortical cultures, 174 neurons from 9 coverslips) | EC50 (GRAB NPY1.0 sensor [1]; mouse cultured cortical neurons expressing GRAB NPY1.0, exogenous NPY1-36 0.3, 1, 30, 1000 nM in aCSF with 1% BSA, pH 7.4, 32°C, mean ΔF/F0, three-parameter fit, n = 130 neurons from 5 coverslips, read-out: EC50 of GRAB NPY1.0 fluorescence response (normalized dose-response curve)) [nM] | change of sRGECO fluorescent signal (neuronal activity) during continuous Bic + 4-AP perfusion ([2]; exogenous NPY added to primary cultures during Bic + 4-AP) | EC50 (GRAB NPY1.0 sensor [3]; HEK293T cells stably expressing the NPY1.0 sensor) [nM] | EC50 (GRAB NPY1.0 sensor [3]; rat cortical neurons transduced by a similar AAV9 vector with human synapsin promoter) [nM] | change of GRAB NPY1.0 fluorescence signal at baseline conditions (GRAB NPY1.0 sensor [1]; BIBO3304 1 μM applied at baseline, n = 90 neurons from 2 coverslips) | change of GRAB NPY1.0 fluorescence when added during Bic + 4-AP (GRAB NPY1.0 sensor [1]; NPY transgene (AAV-NPY) cortical cultures, BIBO3304 1 μM added to Bic 50 μM + 4-AP 250 μM, n = 128 neurons from 6 coverslips) | effect on GRAB NPY1.0 signal of cluster A during Bic + 4-AP (GRAB NPY1.0 sensor [1]; [4]) | effect on GRAB NPY1.0 signal of clusters B and C during Bic + 4-AP (GRAB NPY1.0 sensor [1]; [4]) | effect on high-frequency activity induced by Bic + 4-AP (sRGECO signal) ([2]; BIBO3304 applied to the cultures)
Neuropeptide Y [NPY] | 8 out of 174 | 38 | marked decrease | 40 | 0.7 |  |  |  |  | 
NC(=O)NCc1ccc(CNC(=O)[C@@H](CCCN=C(N)N)NC(=O)C(c2ccccc2)c2ccccc2)cc1 [BIBO3304] |  |  |  |  |  | remained unchanged | significant drop in fluorescence | not affected | significantly reduced | not per se affected
